In paper PMC6639804 (The Biochemical journal, 2018) one finds binding stoichiometry data, which are given here for one compound.

This assay has as its target T1, Cnx1E (Arabidopsis thaliana, UniProt Q39054).
T1 sequence (Q39054 1-452): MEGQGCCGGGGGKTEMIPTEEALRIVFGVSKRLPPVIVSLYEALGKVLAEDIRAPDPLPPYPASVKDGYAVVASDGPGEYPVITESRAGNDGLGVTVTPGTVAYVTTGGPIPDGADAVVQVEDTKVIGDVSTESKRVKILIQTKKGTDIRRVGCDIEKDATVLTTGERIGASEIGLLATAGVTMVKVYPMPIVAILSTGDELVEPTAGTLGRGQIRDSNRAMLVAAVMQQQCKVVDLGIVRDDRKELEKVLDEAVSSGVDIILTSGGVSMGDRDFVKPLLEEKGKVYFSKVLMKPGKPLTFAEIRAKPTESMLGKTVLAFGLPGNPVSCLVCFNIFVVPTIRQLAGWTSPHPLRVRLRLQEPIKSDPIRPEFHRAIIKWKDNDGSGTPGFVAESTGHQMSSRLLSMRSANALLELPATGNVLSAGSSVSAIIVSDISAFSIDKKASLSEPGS
Briefly: co-purified ligand, FormA-based HPLC. Format: binding. Conditions: co-purified from E. coli RK5206, not added; phosphodiesterase I treated sample.

Each structure is given as a SMILES string.

For the compound `Nc1nc2c(c(=O)[nH]1)N[C@H]1C(S)=C(S)[C@@H](COP(=O)(O)OP(=O)(O)OC[C@H]3O[C@@H](n4cnc5c(N)ncnc54)[C@H](O)[C@@H]3O)O[C@H]1N2` [MPT-AMP], the binding stoichiometry is recorded as 0.0136 +/− 0.0048.
